From PubChem BioAssay AID493048 (Broad Institute, 2011)
The source made the active and inactive calls. The rule behind the calls is not given here.

Target: GTP-binding nuclear protein Ran (Homo sapiens) + Importin subunit beta-1 (Homo sapiens) (UniProt P62826+Q14974)
Experiment: RanGTP/importin-beta interaction disruptors – biochemical, plate reader, dry powder, dose response (AID 493048)
Details: biochemical RanGTP-importin-beta complex

In the case of C[C@H](Nc1nc(N2CCCC2)nc2ccccc12)c1ccccc1, the “activity change, negative = inhibition” value (at 100 µM (top of the series)) is reported as “inactive”.
Compound COc1ccc(-c2cc(C(F)(F)F)n3nc(N)nc3n2)cc1 has an AC50 of 61.5 µM.
In the case of c1ccc2c(N3CCCC3)nc(N3CCCC3)nc2c1, the “activity change, negative = inhibition” value (at 100 µM (top of the series)) is reported as “inactive”.
In the case of c1ccc2c(N3CCOCC3)nc(N3CCOCC3)nc2c1, the “activity change, negative = inhibition” value (at 100 µM (top of the series)) is reported as “inactive”.
C[C@H](Nc1nc(Cl)nc2ccccc12)c1ccccc1 was tested, and the “activity change, negative = inhibition” value (at 100 µM (top of the series)) was “inactive”.
O=c1[nH]c(N2CCCC2)nc2ccccc12 was tested, and the “activity change, negative = inhibition” value (at 100 µM (top of the series)) was “inactive”.
With CCN(CC)c1nc(N2CCCC2)nc2ccccc12 the “activity change, negative = inhibition” value (at 100 µM (top of the series)) was “inactive”.
CCCN(CCC)c1nc(Cl)nc2ccccc12 was tested, and the “activity change, negative = inhibition” value (at 100 µM (top of the series)) was “inactive”.
For Cc1cccc(-n2c(C)cc(/C=C3/C(=N)N4N=C(CC(C)C)SC4=NC3=O)c2C)c1, the AC50 was 28.2 µM.
In the case of CCCN(CCC)c1nc(N2CCNCC2)c2ccccc2n1, the “activity change, negative = inhibition” value (at 100 µM (top of the series)) is reported as “inactive”.
With CCNc1nc(N2CCCC2)nc2ccccc12 the “activity change, negative = inhibition” value (at 100 µM (top of the series)) was “inactive”.
In the case of CC1(C)CCC(c2ccc(Cl)cc2)=C(CN2CCN(c3ccc(C(=O)NS(=O)(=O)c4ccc(N[C@H](CCN5CCOCC5)CSc5ccccc5)c(S(=O)(=O)C(F)(F)F)c4)cc3)CC2)C1, the “activity change, negative = inhibition” value (at 100 µM (top of the series)) is reported as “inactive”.
For CC1(C)CC(=O)c2c(C(F)(F)F)nn(-c3ccc(C(N)=O)c(NC4CCC(OC(=O)CN)CC4)c3)c2C1 (stereo unspecified), the “activity change, negative = inhibition” value (at 100 µM (top of the series)) was “inactive”.
For c1ccc(CNc2nc(N3CCCC3)nc3ccccc23)cc1, the “activity change, negative = inhibition” value (at 100 µM (top of the series)) was “inactive”.
For CSc1ccc(/C=C(/Sc2nnc(-c3ccccc3)o2)C(=O)O)cc1, the “activity change, negative = inhibition” value (at 100 µM (top of the series)) was “inactive”.
In the case of CC1(C)CC(=O)c2c(C(F)(F)F)nn(-c3ccc(C(N)=O)c(OC4CCC(N)CC4)c3)c2C1 (stereo unspecified), the “activity change, negative = inhibition” value (at 100 µM (top of the series)) is reported as “inactive”.
In the case of O=C(O)Cn1cc(/C=C2\SC(=O)N(CC(=O)N3CCCCCC3)C2=O)c2ccccc21, the AC50 is reported as 90.9 µM.
For COc1cc2nc(N3CCCC3)nc(N3CCCC3)c2cc1OC, the “activity change, negative = inhibition” value (at 100 µM (top of the series)) was “inactive”.
C=CCn1c(N)c(C(=O)OCCC)c2nc3ccccc3nc21 gave an AC50 of 36.4 µM.
In the case of CC1=C(C(=O)OCC2CCCO2)C(c2ccccc2OC(C)C)C2C(=O)CC(c3ccco3)CC2=N1 (stereo unspecified), the AC50 is reported as 10.3 µM.
With COc1cc(OC)cc(C(=O)NCCNc2nc3cc(C)cc(C)c3cc2C#N)c1 the AC50 was 12.9 µM.
With C[C@@H](Nc1nc(N2CCCC2)nc2ccccc12)c1ccccc1 the “activity change, negative = inhibition” value (at 100 µM (top of the series)) was “inactive”.
CCCN(CCC)c1nc(N2CCOCC2)nc2ccccc12 was tested, and the “activity change, negative = inhibition” value (at 100 µM (top of the series)) was “inactive”.
For CCCN(CCC)c1nc(N2CCCC2)nc2cc(OC)c(OC)cc12, the “activity change, negative = inhibition” value (at 50 µM (top of the series)) was “inactive”.
In the case of CCCN(CCC)c1nc(NCc2ccccc2)nc2ccccc12, the “activity change, negative = inhibition” value (at 100 µM (top of the series)) is reported as “inactive”.
CCCN(CCC)c1nc(N)c2ccccc2n1 was tested, and the “activity change, negative = inhibition” value (at 100 µM (top of the series)) was “inactive”.
In the case of CCCN(CCC)c1nc(N2CCCC2)nc2ccccc12, the “activity change, negative = inhibition” value (at 100 µM (top of the series)) is reported as “inactive”.
In the case of Cc1cc(Nc2ccc(C(F)(F)F)cc2)n2ncnc2n1, the “activity change, negative = inhibition” value (at 100 µM (top of the series)) is reported as “inactive”.
With Clc1nc(NCc2ccccc2)c2ccccc2n1 the “activity change, negative = inhibition” value (at 100 µM (top of the series)) was “inactive”.
With C[C@@H](Nc1nc(Cl)nc2ccccc12)c1ccccc1 the “activity change, negative = inhibition” value (at 100 µM (top of the series)) was “inactive”.
CCCN(CCC)c1nc(N2CCCC2)c2cc(OC)c(OC)cc2n1 was tested, and the “activity change, negative = inhibition” value (at 26 µM (top of the series)) was “inactive”.
With CC1(C)CC(=O)c2c(C(F)(F)F)nn(-c3ccc(C(N)=O)c(NC4CCC(O)CC4)c3)c2C1 (stereo unspecified) the “activity change, negative = inhibition” value (at 100 µM (top of the series)) was “inactive”.
For CC(C)SCC(=O)Nc1ncc2c(n1)-c1ccccc1CC2, the AC50 was 37.3 µM.
With Cc1cccc(C)c1NC(=O)C1C(=O)c2sccc2N(C)S1(=O)=O (stereo unspecified) the “activity change, negative = inhibition” value (at 100 µM (top of the series)) was “inactive”.
In the case of CC(Nc1nc(N2CCCC2)nc2ccccc12)c1ccccc1 (stereo unspecified), the “activity change, negative = inhibition” value (at 100 µM (top of the series)) is reported as “inactive”.
COc1ccc(CCNC(=O)c2cc3c(=O)n4cccc(C)c4nc3n(CCCN3CCOCC3)c2=N)cc1 showed an AC50 of 9.68 µM.
